# Experimental data published in patent US12054498B2, “Heteroaromatic macrocyclic ether chemotherapeutic agents” (Nuvalent, Inc., priority 2020, dated 2024).
# Experiments:
# ROS1-G2032R = molecular target: T1, ROS1-G2032R (Homo sapiens, UniProt P08922, G2032R); experiment: Biochemical kinase assay, ROS1-G2032R kinase domain; conditions: apparent inhibitory constant, Morrison equation; ATP 2 mM in substrate solution; read-out: ROS1-G2032R Ki^app
# T1 construct: purchased SignalChem R14-12BG
# Experimental: (§1) First, 250 nL of compound dissolved in DMSO (100-fold of the desired concentration) was dispensed into a 384-well plate. A 12.5 μL substrate solution containing ATP (2 mM) and fluorogenic phosphorylation substrate AQT0101 (26 μM for ALK and ROS1, AssayQuant) or AQT0104 (26 μM for TRKA, AssayQuant) in buffer (50 mM HEPES pH 7.5, 0.01% Brij-35, 0.5 mM EGTA, 10 mM MgCl2) was added and mixed thoroughly. […] The plate was sealed and read by SpectraMax Paradigm at λ=485 nm every 2 minutes for 120 minutes at 30° C. Initial rates of reaction (v) were calculated from the change in fluorescence intensity over time during the initial, linear portion of the reaction. Finally, apparent inhibitory constants (Ki^app) were determined from regression of v and I (inhibitor concentration) to Morrison Equation (E=enzyme concentration): […]
# TRKA-wt = molecular target: T2, TRKA-wt (Homo sapiens, UniProt P04629); experiment: Biochemical kinase assay, TRKA-wt kinase domain; conditions: apparent inhibitory constant, Morrison equation; ATP 2 mM in substrate solution; read-out: TRKA-wt Ki^app
# T2 construct: or TRKA-wt (1 nM, BPS Bio, 40280) kinase domains in buffer; purchased BPS Bio 40280
# T2 sequence (P04629 510-781 limits assumed): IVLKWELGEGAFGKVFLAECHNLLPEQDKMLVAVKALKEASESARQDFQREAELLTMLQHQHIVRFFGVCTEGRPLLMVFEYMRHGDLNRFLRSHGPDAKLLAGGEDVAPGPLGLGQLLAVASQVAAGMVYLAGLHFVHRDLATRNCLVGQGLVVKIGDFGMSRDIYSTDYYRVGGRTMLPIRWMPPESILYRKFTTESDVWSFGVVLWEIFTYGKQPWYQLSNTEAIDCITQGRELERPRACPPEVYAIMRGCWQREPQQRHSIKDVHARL
# Experimental: (§2) First, 250 nL of compound dissolved in DMSO (100-fold of the desired concentration) was dispensed into a 384-well plate. A 12.5 μL substrate solution containing ATP (2 mM) and fluorogenic phosphorylation substrate AQT0101 (26 μM for ALK and ROS1, AssayQuant) or AQT0104 (26 μM for TRKA, AssayQuant) in buffer (50 mM HEPES pH 7.5, 0.01% Brij-35, 0.5 mM EGTA, 10 mM MgCl2) was added and mixed thoroughly. Then, a 12.5 μL kinase solution containing ALK-wt (1.5 nM, Carna, 08-518), ALK ALK L1196M/G1202R (3 nM, SignalChem, A19-12NG), ROS1-wt (0.6 nM, Carna, 08-163), ROS1-G2032R (0.5 nM, SignalChem, R14-12BG), or TRKA-wt (1 nM, BPS Bio, 40280) kinase domains in buffer ([…] HEPES pH 7.5, 0.01% Brij-35, 2% glycerol, 0.4 mg/mL BSA, 0.5 mM EGTA, and 10 mM MgCl2) was added and mixed thoroughly. The plate was sealed and read by SpectraMax Paradigm at λ=485 nm every 2 minutes for 120 minutes at 30° C. Initial rates of reaction (v) were calculated from the change in fluorescence intensity over time during the initial, linear portion of the reaction. Finally, apparent inhibitory constants (Ki^app) were determined from regression of v and I (inhibitor concentration) to Morrison Equation (E=enzyme concentration): […]
# Ba/F3 cells TPM3-TRKA = molecular target: T3, Ba/F3 cells TPM3-TRKA (Homo sapiens, UniProt P04629); experiment: Ba/F3 cell proliferation assay, TPM3-TRKA; format: cell-based; conditions: 72 hours, CellTiter-Glo, read-out: TPM3-NTRK1-wt IC50
# T3 construct: host or cells: Ba/F3 (RIKEN), retroviral pMSCV-puro; the other entry of the earlier key: TPM3 (P06753, Tropomyosin alpha-3 chain)
# T3 sequence (P04629 510-796 limits assumed): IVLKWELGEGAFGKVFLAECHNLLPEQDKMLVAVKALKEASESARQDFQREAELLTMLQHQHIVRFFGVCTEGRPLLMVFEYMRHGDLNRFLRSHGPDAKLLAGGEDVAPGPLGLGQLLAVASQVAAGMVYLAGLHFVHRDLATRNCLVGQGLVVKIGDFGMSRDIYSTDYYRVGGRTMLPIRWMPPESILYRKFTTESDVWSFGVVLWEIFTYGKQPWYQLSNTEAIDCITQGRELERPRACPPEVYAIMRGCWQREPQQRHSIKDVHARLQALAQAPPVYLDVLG
# How it was run: (§3)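 IL-3-independent Ba/F3 monoclones, puromycin-selected, transduced with fusion genes; 1,000 cells/well, 1 day rest, 3-fold compound series, 72 h. Read: CellTiter-Glo luminescence. IC50 from % inhibition vs concentration, 4-parameter logistic.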
# [1] = test system: TPM3-NTRK1-wt IC50 / primary target IC50 (e.g. CD74-ROS1-wt); experiment: TRKA selectivity in Ba/F3 cells (TRKA potency divided by primary target potency); format: cell-based; conditions: for TPM3-NTRK1-wt/CD74-ROS1-G2032R selectivity ratio: TRKA potency / CD74-ROS1-G2032R potency; for TPM3-NTRK1-wt/CD74-ROS1-wt selectivity ratio: TRKA potency / CD74-ROS1-wt potency; for TPM3-NTRK1-wt/EML4-ALK-L1196M-G1202R selectivity ratio: TRKA potency / EML4-ALK-L1196M-G1202R potency; for TPM3-NTRK1-wt/EML4-ALK-wt selectivity ratio: TRKA potency / EML4-ALK-wt potency
# Experimental: TRKA selectivity was calculated by dividing a compound's TRKA potency by its primary target potency (e.g. TPM3-NTRK1-wt IC50/CD74-ROS1-wt IC50). Compound selectivity can be interpreted by binning ratio values: bin A for very high selectivity, ratio >30-fold; bin B for high selectivity, ratio >10-fold; bin C for moderate selectivity, ratio ≥1; and bin D for low selectivity, ratio <1. […] (nd=not determined).
# ALK L1196M/G1202R = molecular target: T4, ALK L1196M/G1202R (Homo sapiens, UniProt Q9UM73, G1202R/L1196M); experiment: Biochemical kinase assay, ALK L1196M/G1202R kinase domain; conditions: apparent inhibitory constant, Morrison equation; ATP 2 mM in substrate solution; read-out: ALK-L1196M-G1202R Ki^app
# T4 construct: purchased SignalChem A19-12NG
# T4 sequence (Q9UM73 1116-1392 L1196M/G1202R limits assumed): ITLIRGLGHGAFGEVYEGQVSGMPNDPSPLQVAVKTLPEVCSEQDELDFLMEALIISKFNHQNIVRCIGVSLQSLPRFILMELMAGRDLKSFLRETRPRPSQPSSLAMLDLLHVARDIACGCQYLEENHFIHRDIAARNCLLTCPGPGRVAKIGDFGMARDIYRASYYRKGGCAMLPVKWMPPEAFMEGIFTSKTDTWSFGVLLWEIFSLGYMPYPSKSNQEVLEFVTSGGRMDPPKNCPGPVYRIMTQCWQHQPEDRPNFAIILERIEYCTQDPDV
# Experimental: as §2
# [2] = molecular target: T5, Ba/F3 cells CD74-ROS1 wild-type (wt) (Homo sapiens, UniProt P08922); experiment: Ba/F3 cell proliferation assay, CD74-ROS1 wild-type; format: cell-based; conditions: 72 hours, CellTiter-Glo
# T5 construct: fusion of the C-terminus of ROS1 with the N-terminus of various partner proteins; host or cells: Ba/F3 (RIKEN), retroviral pMSCV-puro; the other entry of the earlier key: CD74 (P04233, HLA class II histocompatibility antigen gamma chain)
# T5 sequence (P08922 1883-2347 limits assumed): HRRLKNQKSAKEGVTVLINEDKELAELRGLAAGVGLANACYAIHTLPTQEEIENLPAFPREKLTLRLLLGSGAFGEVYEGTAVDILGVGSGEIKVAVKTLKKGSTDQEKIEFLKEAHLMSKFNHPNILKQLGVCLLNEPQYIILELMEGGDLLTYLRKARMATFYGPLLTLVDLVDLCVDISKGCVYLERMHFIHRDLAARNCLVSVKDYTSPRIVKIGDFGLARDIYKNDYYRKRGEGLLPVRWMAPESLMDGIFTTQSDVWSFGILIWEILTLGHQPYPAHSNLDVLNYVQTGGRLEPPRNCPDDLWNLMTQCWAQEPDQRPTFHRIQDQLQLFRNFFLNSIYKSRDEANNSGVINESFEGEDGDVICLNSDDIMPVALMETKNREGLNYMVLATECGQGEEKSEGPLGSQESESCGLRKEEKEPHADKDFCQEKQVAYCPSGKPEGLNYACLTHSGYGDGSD
# How it was run: (§4)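 IL-3-independent Ba/F3 CD74-ROS1 lines, puromycin-selected monoclones; 1,000 cells/well, plated 1 d before dosing; 3-fold serial dilutions, 72 h; CellTiter-Glo luminescence; IC50 by 4-parameter logistic regression.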
# ROS1-wt = molecular target: T6, ROS1-wt (Homo sapiens, UniProt P08922); experiment: Biochemical kinase assay, ROS1-wt kinase domain; conditions: apparent inhibitory constant, Morrison equation; ATP 2 mM in substrate solution; read-out: ROS1-wt Ki^app
# T6 construct: purchased Carna 08-163
# T6 sequence (P08922 1945-2222 limits assumed): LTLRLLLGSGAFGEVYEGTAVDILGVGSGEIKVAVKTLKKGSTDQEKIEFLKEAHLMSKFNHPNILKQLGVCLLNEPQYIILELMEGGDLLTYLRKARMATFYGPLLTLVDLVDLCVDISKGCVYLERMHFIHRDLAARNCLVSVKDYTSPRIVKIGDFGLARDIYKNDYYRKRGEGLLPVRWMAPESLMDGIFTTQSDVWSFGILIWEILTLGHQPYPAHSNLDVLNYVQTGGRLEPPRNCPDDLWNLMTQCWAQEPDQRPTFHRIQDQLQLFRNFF
# Experimental: as §1
# [3] = molecular target: T7, Ba/F3 cells EML4-ALK wt (variant 1) (Homo sapiens, UniProt Q9UM73); experiment: Ba/F3 cell proliferation assay, EML4-ALK wt (variant 1); format: cell-based; conditions: 72 hours, CellTiter-Glo
# T7 construct: echinoderm microtubule-associated protein-like 4 (EML4) gene and the ALK tyrosine kinase domain; host or cells: Ba/F3 (RIKEN), retroviral pMSCV-puro; the other entry of the earlier key: EML4 (Q9HC35, Echinoderm microtubule-associated protein-like 4)
# T7 sequence (Q9UM73 with tags, fused parts or gaps): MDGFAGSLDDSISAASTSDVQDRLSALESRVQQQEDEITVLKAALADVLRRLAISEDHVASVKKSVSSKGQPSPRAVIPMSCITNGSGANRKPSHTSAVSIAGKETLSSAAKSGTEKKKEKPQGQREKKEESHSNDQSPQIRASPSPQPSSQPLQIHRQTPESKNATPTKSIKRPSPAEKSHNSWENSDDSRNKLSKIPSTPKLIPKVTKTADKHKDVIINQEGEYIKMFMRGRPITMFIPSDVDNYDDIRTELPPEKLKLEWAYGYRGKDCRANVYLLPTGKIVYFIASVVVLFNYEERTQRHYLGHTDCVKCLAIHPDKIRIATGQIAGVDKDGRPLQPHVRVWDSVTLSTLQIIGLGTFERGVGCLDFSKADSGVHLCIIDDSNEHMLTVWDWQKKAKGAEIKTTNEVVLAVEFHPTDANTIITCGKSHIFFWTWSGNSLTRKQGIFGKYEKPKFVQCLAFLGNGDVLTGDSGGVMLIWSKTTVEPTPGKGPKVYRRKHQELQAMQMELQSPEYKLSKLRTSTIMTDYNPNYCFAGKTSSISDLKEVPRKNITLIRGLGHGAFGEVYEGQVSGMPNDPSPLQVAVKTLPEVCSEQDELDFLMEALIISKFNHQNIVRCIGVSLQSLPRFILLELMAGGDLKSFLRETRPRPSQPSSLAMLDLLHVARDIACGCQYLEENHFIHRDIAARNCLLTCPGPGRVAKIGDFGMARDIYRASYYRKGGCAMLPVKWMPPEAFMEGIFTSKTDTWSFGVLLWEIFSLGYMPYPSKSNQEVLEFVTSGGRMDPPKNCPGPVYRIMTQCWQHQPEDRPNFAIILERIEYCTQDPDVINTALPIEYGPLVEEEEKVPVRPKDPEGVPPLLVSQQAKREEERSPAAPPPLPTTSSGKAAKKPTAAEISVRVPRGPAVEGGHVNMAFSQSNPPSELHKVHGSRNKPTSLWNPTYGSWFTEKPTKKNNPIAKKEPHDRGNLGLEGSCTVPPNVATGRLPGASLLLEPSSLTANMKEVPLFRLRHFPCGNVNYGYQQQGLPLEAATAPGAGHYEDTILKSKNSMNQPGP
# How it was run: as §3
# [4] = molecular target: T8, Ba/F3 cells CD74-ROS1 G2032R (Homo sapiens, UniProt P08922, G2032R); experiment: Ba/F3 cell proliferation assay, CD74-ROS1 G2032R; format: cell-based; conditions: 72 hours, CellTiter-Glo
# T8 construct: fusion of the C-terminus of ROS1 with the N-terminus of various partner proteins; host or cells: Ba/F3 (RIKEN), retroviral pMSCV-puro; the other entry of the earlier key: CD74 (P04233, HLA class II histocompatibility antigen gamma chain)
# T8 sequence (P08922 1883-2347 G2032R limits assumed): as the sequence (P08922 1883-2347 limits assumed) above, with G150R counted along it
# How it was run: as §4
# [5] = molecular target: T9, Ba/F3 cells EML4-ALK L1196M/G1202R (variant 1) (Homo sapiens, UniProt Q9UM73, G1202R/L1196M); experiment: Ba/F3 cell proliferation assay, EML4-ALK L1196M/G1202R (variant 1); format: cell-based; conditions: 72 hours, CellTiter-Glo
# T9 construct: echinoderm microtubule-associated protein-like 4 (EML4) gene and the ALK tyrosine kinase domain; host or cells: Ba/F3 (RIKEN), retroviral pMSCV-puro; the other entry of the earlier key: EML4 (Q9HC35, Echinoderm microtubule-associated protein-like 4)
# T9 sequence (Q9UM73 with tags, fused parts or gaps L1196M/G1202R): as the sequence (Q9UM73 with tags, fused parts or gaps) above, with L635M, G641R counted along it
# How it was run: as §3
# ALK-wt = molecular target: T10, ALK-wt (Homo sapiens, UniProt Q9UM73); experiment: Biochemical kinase assay, ALK-wt kinase domain; conditions: apparent inhibitory constant, Morrison equation; ATP 2 mM in substrate solution; read-out: ALK-wt Ki^app
# T10 construct: purchased Carna 08-518
# T10 sequence (Q9UM73 1116-1392 limits assumed): as the sequence (Q9UM73 1116-1392 L1196M/G1202R limits assumed) above, with M81L, R87G counted along it
# Experimental: as §2
# T1 sequence (P08922 1945-2222 G2032R limits assumed): as the sequence (P08922 1945-2222 limits assumed) above, with G88R counted along it
SMILES,Ki (ROS1-G2032R),Ki (TRKA-wt),IC50 (Ba/F3 cells TPM3-TRKA),Ki (ALK L1196M/G1202R),IC50 [2],Ki (ROS1-wt),IC50 [3],IC50 [4],IC50 [5],Ki (ALK-wt),TPM3-NTRK1-wt/CD74-ROS1-G2032R selectivity ratio [1],TPM3-NTRK1-wt/CD74-ROS1-wt selectivity ratio [1],TPM3-NTRK1-wt/EML4-ALK-L1196M-G1202R selectivity ratio [1],TPM3-NTRK1-wt/EML4-ALK-wt selectivity ratio [1]
"CCn1ncc2c1-c1cnc(N)c(c1)O[C@H](C)c1cc(F)ccc1-c1c(C#N)cnn1C2 [Example 3, (19R)-22-amino-3-ethyl-16-fluoro-19-methyl-20-oxa-3,4,8,9,23-pentaazapentacyclo[19.3.1.0^2,^6.08,^12.0^13,^18]pentacosa-1(24),2(6),4,9,11,13,15,17,21(25),22-decaene-11 carbonitrile]",< 0.05 µM,0.05 to 0.5 µM,> 0.5 µM,< 0.05 µM,0.0001 to 0.05 µM,< 0.05 µM,0.0001 to 0.05 µM,0.0001 to 0.05 µM,0.05 to 0.5 µM,< 0.05 µM,"A (bin A for very high selectivity, ratio >30-fold)","A (bin A for very high selectivity, ratio >30-fold)","C (bin C for moderate selectivity, ratio ≥1)","A (bin A for very high selectivity, ratio >30-fold)"
"CCn1ncc2c1-c1cnc(N)c(c1)O[C@H](C)c1cc(F)ccc1-c1cc(C)nn1C2 [Example 4, (19R)-3-ethyl-16-fluoro-10,19-dimethyl-20-oxa-3,4,8,9,23-pentaazapentacyclo[19.3.1.0^2,^6.0^8,^12.0^13,^18]pentacosa-1(24),2(6),4,9,11,13,15,1 7,21 (25),22-decaen-22-amine]",< 0.05 µM,0.05 to 0.5 µM,0.05 to 0.5 µM,< 0.05 µM,0.0001 to 0.05 µM,< 0.05 µM,0.0001 to 0.05 µM,0.0001 to 0.05 µM,0.05 to 0.5 µM,< 0.05 µM,"A (bin A for very high selectivity, ratio >30-fold)","A (bin A for very high selectivity, ratio >30-fold)","C (bin C for moderate selectivity, ratio ≥1)","B (bin B for high selectivity, ratio >10-fold)"

# Now from value to compound, other results behind:
Ki (ROS1-G2032R),Ki (TRKA-wt),IC50 (Ba/F3 cells TPM3-TRKA),Ki (ALK L1196M/G1202R),IC50 [2],Ki (ROS1-wt),IC50 [3],IC50 [4],IC50 [5],Ki (ALK-wt),SMILES,TPM3-NTRK1-wt/CD74-ROS1-G2032R selectivity ratio [1],TPM3-NTRK1-wt/CD74-ROS1-wt selectivity ratio [1],TPM3-NTRK1-wt/EML4-ALK-L1196M-G1202R selectivity ratio [1],TPM3-NTRK1-wt/EML4-ALK-wt selectivity ratio [1]
< 0.05 µM,0.05 to 0.5 µM,> 0.5 µM,< 0.05 µM,0.0001 to 0.05 µM,< 0.05 µM,0.0001 to 0.05 µM,0.0001 to 0.05 µM,0.05 to 0.5 µM,< 0.05 µM,"CCn1ncc2c1-c1cnc(N)c(c1)O[C@H](C)c1cc(F)ccc1-c1ccnn1C2 [Example 1, (19R)-3-ethyl-16-fluoro-19-methyl-20-oxa-3,4,8,9,23-pentaazapentacyclo[19.3.1.0^2,^6.0^8,^12.0^13,^18]pentacosa-1(24),2(6),4,9,11,13,15,17,21(25),22-decaen-22-amine]","A (bin A for very high selectivity, ratio >30-fold)","A (bin A for very high selectivity, ratio >30-fold)","B (bin B for high selectivity, ratio >10-fold)","A (bin A for very high selectivity, ratio >30-fold)"
< 0.05 µM,> 0.5 µM,> 0.5 µM,< 0.05 µM,,< 0.05 µM,,0.0001 to 0.05 µM,0.05 to 0.5 µM,< 0.05 µM,"CCn1ncc2c1-c1cnc(N)c(c1)O[C@H](C)c1cc(F)ccc1-c1c(F)cnn1C2 [Example 8, (19R)-3-ethyl-11,16-difluoro-19-methyl-20-oxa-3,4,8,9,23-pentaazapentacyclo[19.3.1.0^2,^6.0^8,^12.0^13,^18]pentacosa-1(24),2(6),4,9,11,13,15,17,21(25),22-decaen-22-amine]","A (bin A for very high selectivity, ratio >30-fold)",,"C (bin C for moderate selectivity, ratio ≥1)",
< 0.05 µM,0.05 to 0.5 µM,0.05 to 0.5 µM,< 0.05 µM,,< 0.05 µM,,0.0001 to 0.05 µM,0.0001 to 0.05 µM,< 0.05 µM,"CCn1ncc2c1-c1cnc(N)c(c1)O[C@H](C)c1cc(F)ccc1-c1nccnc1C2 [Example 36, (20R)-3-ethyl-17-fluoro-20-methyl-21-oxa-3,4,9,12,24-pentaazapentacyclo[20.3.1.0^2,^6.0^8,^13.0^14,^19]hexacosa-1(25),2(6),4,8(13),9,11,14,16,18,22(26),23-undecaen-23-amine]","A (bin A for very high selectivity, ratio >30-fold)",,"B (bin B for high selectivity, ratio >10-fold)",
